In PubChem BioAssay AID1918955 (Molecular Pharmacology Branch, DTP, NCI, 2023):

Tested on: NCI/ADR-RES complex spheroid viability
Test: Anticancer human tumor NCI/ADR-RES cell line growth inhibition;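 for viability, T/C: 100% = DMSO vehicle treated spheroids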
Details: for IC50: curve of first compound; for viability, T/C: stronger effect = lower value; active = viability on the fitted dose curve at most 10% of control; inactive = the rest
How it was run: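 Complex spheroids of tumor cells with HUVEC and human MSCs, exposed to iadademstat combined with other agents. Each agent tested in half-log steps from near clinical Cmax (else 10 microM top), DMSO ≤0.25%.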

[1] = second compound 0.1 µM, first compound 0.0316 µM
[2] = second compound 0.1 µM, first compound 0.1 µM
[3] = second compound 0.316 µM, first compound 0.0316 µM
[4] = second compound 0.316 µM, first compound 0.1 µM
[5] = second compound 1 µM, first compound 0.0316 µM
[6] = second compound 1 µM, first compound 0.1 µM
[7] = second compound 3.16 µM, first compound 0.0316 µM
[8] = second compound 3.16 µM, first compound 0.1 µM
[9] = second compound 10 µM, first compound 0.0316 µM
[10] = second compound 10 µM, first compound 0.1 µM
[11] = second compound 0.1 µM, first compound 0.000949 µM
[12] = second compound 0.1 µM, first compound 0.003 µM
[13] = second compound 0.1 µM, first compound 0.00949 µM
[14] = second compound 0.1 µM, first compound 0.03 µM
[15] = second compound 0.1 µM, first compound 0.0949 µM
[16] = second compound 0.1 µM, first compound 0.3 µM
[17] = second compound 0.316 µM, first compound 0.000949 µM
[18] = second compound 0.316 µM, first compound 0.003 µM
[19] = second compound 0.316 µM, first compound 0.00949 µM
[20] = second compound 0.316 µM, first compound 0.03 µM
[21] = second compound 0.316 µM, first compound 0.0949 µM
[22] = second compound 0.316 µM, first compound 0.3 µM
[23] = second compound 1 µM, first compound 0.000949 µM
[24] = second compound 1 µM, first compound 0.003 µM
[25] = second compound 1 µM, first compound 0.00949 µM
[26] = second compound 1 µM, first compound 0.03 µM
[27] = second compound 1 µM, first compound 0.0949 µM
[28] = second compound 1 µM, first compound 0.3 µM
[29] = second compound 3.16 µM, first compound 0.000949 µM
[30] = second compound 3.16 µM, first compound 0.003 µM
[31] = second compound 3.16 µM, first compound 0.00949 µM
[32] = second compound 3.16 µM, first compound 0.03 µM
[33] = second compound 3.16 µM, first compound 0.0949 µM
[34] = second compound 3.16 µM, first compound 0.3 µM
[35] = second compound 10 µM, first compound 0.000949 µM
[36] = second compound 10 µM, first compound 0.003 µM
[37] = second compound 10 µM, first compound 0.00949 µM
[38] = second compound 10 µM, first compound 0.03 µM
[39] = second compound 10 µM, first compound 0.0949 µM
[40] = second compound 10 µM, first compound 0.3 µM

CC(C)CC(NC(=O)C(Cc1ccccc1)NC(=O)c1cnccn1)B(O)O (stereo not given) + NC1CCC(NC2CC2c2ccccc2)CC1
active: viability, T/C [2] 4% | viability, T/C [3] 9.17% | viability, T/C [4] 0.68% | viability, T/C [5] 8.19% | viability, T/C [6] 0.58% | viability, T/C [7] 7.8% | viability, T/C [8] 0.14% | viability, T/C [9] 8.41% | viability, T/C [10] 0.25%
10.2 nM: IC50 (second compound 0.1 µM)
12.1 nM: IC50 (second compound 0.316 µM)
9.4 nM: IC50 (second compound 1 µM)
9.37 nM: IC50 (second compound 3.16 µM)
inactive: viability, T/C (second compound 0.1 µM, first compound 0.000316 µM) 103% | viability, T/C (second compound 0.1 µM, first compound 0.001 µM) 110% | viability, T/C (second compound 0.1 µM, first compound 0.00316 µM) 92.4% | viability, T/C (second compound 0.1 µM, first compound 0.01 µM) 51.5% | viability, T/C [1] 10.4% | viability, T/C (second compound 0.316 µM, first compound 0.000316 µM) 111% | viability, T/C (second compound 0.316 µM, first compound 0.001 µM) 101% | viability, T/C (second compound 0.316 µM, first compound 0.00316 µM) 100% | viability, T/C (second compound 0.316 µM, first compound 0.01 µM) 58.1% | viability, T/C (second compound 1 µM, first compound 0.000316 µM) 104% | viability, T/C (second compound 1 µM, first compound 0.001 µM) 98.4% | viability, T/C (second compound 1 µM, first compound 0.00316 µM) 98.7% | viability, T/C (second compound 1 µM, first compound 0.01 µM) 46.7% | viability, T/C (second compound 3.16 µM, first compound 0.000316 µM) 95.9% | viability, T/C (second compound 3.16 µM, first compound 0.001 µM) 97.1% | viability, T/C (second compound 3.16 µM, first compound 0.00316 µM) 86.1% | viability, T/C (second compound 3.16 µM, first compound 0.01 µM) 48.3% | viability, T/C (second compound 10 µM, first compound 0.000316 µM) 94.1% | viability, T/C (second compound 10 µM, first compound 0.001 µM) 85.4% | viability, T/C (second compound 10 µM, first compound 0.00316 µM) 82.6% | viability, T/C (second compound 10 µM, first compound 0.01 µM) 31.4%
6.59 nM: IC50 (second compound 10 µM)

CCc1c2c(nc3ccc(O)cc13)-c1cc3c(c(=O)n1C2)COC(=O)[C@]3(O)CC + NC1CCC(NC2CC2c2ccccc2)CC1
< 0.949 nM: IC50 (second compound 0.1 µM) | IC50 (second compound 0.316 µM) | IC50 (second compound 1 µM) | IC50 (second compound 3.16 µM) | IC50 (second compound 10 µM)
active: viability, T/C [11] 5.27% | viability, T/C [12] 2.59% | viability, T/C [13] 0.6% | viability, T/C [14] 1.16% | viability, T/C [15] 1.11% | viability, T/C [16] 3.88% | viability, T/C [17] 2.94% | viability, T/C [18] 1.44% | viability, T/C [19] 1.36% | viability, T/C [20] 2.53% | viability, T/C [21] 0.44% | viability, T/C [22] 0.37% | viability, T/C [23] 6.45% | viability, T/C [24] 1.09% | viability, T/C [25] 1.09% | viability, T/C [26] 1.03% | viability, T/C [27] 0.47% | viability, T/C [28] 0.58% | viability, T/C [29] 2.6% | viability, T/C [30] 1.07% | viability, T/C [31] 0.88% | viability, T/C [32] 0.53% | viability, T/C [33] 1.24% | viability, T/C [34] 2.59% | viability, T/C [35] 4.02% | viability, T/C [36] 1.26% | viability, T/C [37] 0.71% | viability, T/C [38] 0.53% | viability, T/C [39] 0.22% | viability, T/C [40] 4.32%

Nc1ccccc1NC(=O)c1ccc(CNC(=O)OCc2cccnc2)cc1 + NC1CCC(NC2CC2c2ccccc2)CC1
1270 nM: IC50 (second compound 1 µM)
622 nM: IC50 (second compound 10 µM)
1170 nM: IC50 (second compound 0.1 µM)
979 nM: IC50 (second compound 3.16 µM)
1340 nM: IC50 (second compound 0.316 µM)
inactive: viability, T/C [13] 106% | viability, T/C [14] 96.8% | viability, T/C [15] 93.4% | viability, T/C [16] 80.8% | viability, T/C (second compound 0.1 µM, first compound 0.949 µM) 52.6% | viability, T/C (second compound 0.1 µM, first compound 3 µM) 32.7% | viability, T/C [19] 110% | viability, T/C [20] 98.6% | viability, T/C [21] 96.8% | viability, T/C [22] 93.8% | viability, T/C (second compound 0.316 µM, first compound 0.949 µM) 57.9% | viability, T/C (second compound 0.316 µM, first compound 3 µM) 30.5% | viability, T/C [25] 106% | viability, T/C [26] 100% | viability, T/C [27] 97.6% | viability, T/C [28] 76.5% | viability, T/C (second compound 1 µM, first compound 0.949 µM) 56.8% | viability, T/C (second compound 1 µM, first compound 3 µM) 32.9% | viability, T/C [31] 102% | viability, T/C [32] 100% | viability, T/C [33] 93% | viability, T/C [34] 79.6% | viability, T/C (second compound 3.16 µM, first compound 0.949 µM) 49.8% | viability, T/C (second compound 3.16 µM, first compound 3 µM) 30.7% | viability, T/C [37] 95.1% | viability, T/C [38] 79.8% | viability, T/C [39] 72.7% | viability, T/C [40] 65.5% | viability, T/C (second compound 10 µM, first compound 0.949 µM) 42.4% | viability, T/C (second compound 10 µM, first compound 3 µM) 22.2%

Nc1ccn(C2OC(CO)C(O)C2(F)F)c(=O)n1 (stereo not given) + NC1CCC(NC2CC2c2ccccc2)CC1
active: viability, T/C [11] 2.74% | viability, T/C [12] 4.03% | viability, T/C [13] 2.54% | viability, T/C [14] 2.78% | viability, T/C [15] 2.85% | viability, T/C [16] 3.22% | viability, T/C [17] 4.09% | viability, T/C [18] 4.64% | viability, T/C [19] 2.74% | viability, T/C [20] 3.17% | viability, T/C [21] 1.83% | viability, T/C [22] 5.17% | viability, T/C [23] 3.13% | viability, T/C [24] 3.5% | viability, T/C [25] 3.1% | viability, T/C [26] 2.71% | viability, T/C [27] 2.01% | viability, T/C [28] 1.76% | viability, T/C [29] 2.3% | viability, T/C [30] 3.42% | viability, T/C [31] 2.96% | viability, T/C [32] 1.75% | viability, T/C [33] 0.86% | viability, T/C [34] 2.49% | viability, T/C [35] 1.69% | viability, T/C [36] 2.17% | viability, T/C [37] 2.05% | viability, T/C [38] 2.1% | viability, T/C [39] 5.19% | viability, T/C [40] 0.69%
< 0.949 nM: IC50 (second compound 0.1 µM) | IC50 (second compound 0.316 µM) | IC50 (second compound 1 µM) | IC50 (second compound 3.16 µM) | IC50 (second compound 10 µM)

O=C(c1cc(Cc2n[nH]c(=O)c3ccccc23)ccc1F)N1CCN(C(=O)C2CC2)CC1 + NC1CCC(NC2CC2c2ccccc2)CC1
> 10000 nM: IC50 (second compound 0.1 µM) | IC50 (second compound 0.316 µM) | IC50 (second compound 1 µM) | IC50 (second compound 3.16 µM) | IC50 (second compound 10 µM)
inactive: viability, T/C [1] 99.8% | viability, T/C [2] 97.5% | viability, T/C (second compound 0.1 µM, first compound 0.316 µM) 104% | viability, T/C (second compound 0.1 µM, first compound 1 µM) 102% | viability, T/C (second compound 0.1 µM, first compound 3.16 µM) 102% | viability, T/C (second compound 0.1 µM, first compound 10 µM) 87.6% | viability, T/C [3] 109% | viability, T/C [4] 101% | viability, T/C (second compound 0.316 µM, first compound 0.316 µM) 105% | viability, T/C (second compound 0.316 µM, first compound 1 µM) 111% | viability, T/C (second compound 0.316 µM, first compound 3.16 µM) 96.2% | viability, T/C (second compound 0.316 µM, first compound 10 µM) 101% | viability, T/C [5] 100% | viability, T/C [6] 108% | viability, T/C (second compound 1 µM, first compound 0.316 µM) 112% | viability, T/C (second compound 1 µM, first compound 1 µM) 107% | viability, T/C (second compound 1 µM, first compound 3.16 µM) 105% | viability, T/C (second compound 1 µM, first compound 10 µM) 91.5% | viability, T/C [7] 99.1% | viability, T/C [8] 102% | viability, T/C (second compound 3.16 µM, first compound 0.316 µM) 97.4% | viability, T/C (second compound 3.16 µM, first compound 1 µM) 96% | viability, T/C (second compound 3.16 µM, first compound 3.16 µM) 104% | viability, T/C (second compound 3.16 µM, first compound 10 µM) 87.3% | viability, T/C [9] 94.8% | viability, T/C [10] 97.4% | viability, T/C (second compound 10 µM, first compound 0.316 µM) 93.1% | viability, T/C (second compound 10 µM, first compound 1 µM) 88.8% | viability, T/C (second compound 10 µM, first compound 3.16 µM) 92.5% | viability, T/C (second compound 10 µM, first compound 10 µM) 91.7%
